Assay results: paper PMC7127694 (Bioorganic & Medicinal Chemistry, 2009)
Where two headings read alike, the source gives them in different places.

Key:
[1] = system: BVDV; details: read-out: EC50 (anti-BVDV); cited from earlier work
[2] = system: RSV; details: read-out: EC50 (anti-RSV), cited from earlier work
[3] = system: HSV-1 (Herpes Simplex virus, Type-1); type: cell-based
[4] = Cytotoxicity on host cells, mean over the host cell lines; details: human, bovine, hamster, monkey

Compound: 3-[(dipropylaminoethyl)thio]-5H-1,2,4-triazino[5,6-b]indole [VP32947]
- EC50 [1]: 30 to 40 nM

Compound: O=c1n(Cc2nc3ccccc3n2CCCCO)c2cnccc2n1C1CC1 [BMS-433771]
- EC50 ([2]; fusion inhibitor): 21 nM

Compound: Brc1ccc(Cn2ccc3nc(-c4ccccc4)nc-3c2)cc1 [BPIP, 5-[4-bromobenzyl]-2-phenyl-5H-imidazo[4,5-c]pyridine]
- EC50 [1]: 30 to 40 nM

Compound: CN(C)CCCNc1ccc(/N=N/c2cccc([N+](=O)[O-])c2)cc1.Cl [Compound 2, N,N-Dimethyl-N′-[4-(3-nitrophenylazo)phenyl]propane-1,3-diamine]
- S. I. (selectivity index), HSV-1 [3]: 4.2

Compound: Fc1ccc(/N=N/c2ccc(NC[C@@H]3CCCN4CCCC[C@H]34)c3c2CCCC3)c(F)c1 [Compound 12]
- CC50 [4]: 21500 nM

Compound: CN(C)CCCN(/N=N/c1cc(F)ccc1F)c1ccccc1 [Compound 29, 1-[1-(2,5-Difluorophenyl)-3-phenyltriazen-3-yl]-N,N-dimethyl-3-propanamine]
- CC50 [4]: 17500 nM

Compound: O=C(Nc1ccccc1F)N[C@H]1N=C(c2ccccc2)c2ccccc2NC1=O [RSV-604]
- EC50 ([2]; S-enantiomer): 900 nM
